Source: patent EP4682145A1, “BENZOHETEROCYCLIC COMPOUND, AND PREPARATION METHOD THEREFOR AND USE THEREOF” (Cascade Pharmaceuticals, Inc., priority 2023, dated 2024)
pEC50: −log10 of the molar value. One block for each molecule: values may come before it.

How the values were obtained:
human FFAR1 (GPR40) = target: T1, human FFAR1 (GPR40) (Homo sapiens, UniProt O14842); test: NFAT-RE-based reporter gene activity assay (Dual-Glo luciferase) for GPR40 agonistic activity in co-transfected HEK293T cells; format: cell-based; settings: 4-hour treatment
T1 construct: Flag; expressed in transfected cells; host or cells: HEK293T
How it was run: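 Agonism read as NFAT-RE-driven firefly luciferase over Renilla control (Dual-Glo) after 4 h compound exposure, top concentration 1 µM, 10 half-log steps.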

[1] = Pharmacokinetic evaluation in ICR mice (intravenous and gavage); format: in vivo; settings: for CL_obs / Vss_obs / half-life: Intravenous Administration (5 mg/kg); for bioavailability: gavage 10 mg/kg versus intravenous 5 mg/kg
Protocol: The bioavailability and pharmacokinetic behavior of the compounds were evaluated in mice. 6 male ICR mice with similar body weights were selected, among which 3 mice were administered a single gavage dose of 10 mg/kg, and the other 3 mice were intravenously administered a single dose of 5 mg/kg. Blood samples were collected at 5 minutes (intravenous administration), 15 minutes, 30 minutes, 1 hour, 2 hours, 4 hours, and 7 hours after administration. The plasma samples were analyzed for concentration by LCMS/MS, and the pharmacokinetic parameters of the compounds were analyzed using the PKSolver free tool and non-compartmental analysis (NCA) software.
Experimental animals: Each compound test group included 6 healthy male ICR mice, weighing 18-25 g, purchased from Charles River, which were randomly divided into 2 groups with 3 mice each.
Preparation of formulations: A certain amount of the compound was weighed and added to 2% DMSO + 15% Solutol + 83% physiological saline to form a clear solution.
Dosage: ICR mice were fasted overnight and administered the compound at a dose of 10 mg/kg via gavage or 5 mg/kg via intravenous injection. The dosing volumes for gavage and intravenous administration were 10 mL/kg and 5 mL/kg, respectively. Uniform feeding was conducted 2 hours after administration.
Sample collection: Approximately 30 µL of blood was collected from the great saphenous vein at 5 minutes (intravenous administration), 15 minutes, 30 minutes, 1 hour, 2 hours, 4 hours, and 7 hours after administration. The blood was placed into commercially available tubes containing K2-EDTA. The blood samples were then centrifuged at 4°C and 4600 rpm for 5 minutes to obtain plasma samples. All plasma samples were rapidly frozen on dry ice and maintained at -70°C until LCMS/MS analysis was performed.
Sample preparation: 10 µL of plasma sample was aspirated and precipitated with a methanol solution containing 50 nmol/L of α-naphthoflavone (internal standard). The mixture was thoroughly mixed and centrifuged at 4°C and 14000 rpm for 5 minutes. Then, 75 µL of the supernatant was mixed with 75 µL of methanol for LCMS/MS analysis.

normal C57BL6/J mice = test: Oral glucose tolerance test (OGTT) in normal C57BL6/J mice; format: in vivo; settings: 1 mg/kg gavage, single dose; for AUC 0-120 minutes: blood glucose AUC
Protocol: Eighteen normal male C57BL6/J mice (8-9 weeks old) were selected and randomly divided into 3 groups based on body weight and blood glucose levels, with 6 mice in each group. On the day of the OGTT, fasting was initiated at 8:30 AM. At 11:30 AM, drug interventions were administered via gavage (vehicle control, compound 14, 1 mg/kg, and compound 169, 1 mg/kg). At 1:30 PM, glucose (2 g/kg) was administered via gavage, while the blank control group received the vehicle control orally (2% DMSO + 15% solutol + 83% DDW solution) at a dosing volume of 10 mL/kg. Blood glucose measurements during the OGTT were taken at the following time points: 0, 15, 30, 60, 90, and 120 minutes after glucose administration.
Blood glucose levels were measured at 0, 15, 30, 60, and 120 minutes after glucose administration. The area under the curve (AUC) for blood glucose over 120 minutes was calculated. [formula]
Note: BG0, BG15, BG30, BG60, BG90, and BG120 represent the blood glucose levels at 0, 15, 30, 60, 90, and 120 minutes after glucose administration, respectively.
(§1) Data were expressed as mean ± standard deviation. One-way ANOVA was employed for statistical analysis, with p < 0.05 considered statistically significant.

[2] = system: normal male C57BL6/J mice; test: In vivo hypoglycemia risk assay in fasted normal C57BL6/J mice; settings: mouse, in vivo, po, 10 mg/kg
Protocol: The blank control group was orally administered with the vehicle control (2% DMO + 15% solutol + 83% DDW solution), with a dosing volume of 10 mL/kg. […] […] Data were expressed as mean ± standard deviation. One-way ANOVA was employed for statistical analysis, with p < 0.05 considered statistically significant.

C57BL6/J mice = test: In vivo pharmacodynamic assay for non-alcoholic fatty liver disease (high-fat, high-cholesterol, high-fructose diet mice); settings: 1 mpk oral gavage once daily for 28 days
Protocol: Normal male C57BL6/J mice ([…]) were fed a high-fat, high-cholesterol, high-fructose diet (D09100310, Research Diets) for 20 weeks. Based on body weight and biochemical data, the mice were randomly divided into groups, with 6 mice per group. The compound 169 (0.03, 0.1, and 0.6 mg/kg) was administered via oral gavage. The positive control was MGL3196 (1 mg/kg), and the blank control group consisted of mice of the same strain and age fed a normal diet for the same duration. The blank control and model control groups were given the vehicle (15% solutol + 85% DDW), totaling 6 groups. Administration was performed once daily for 28 days. After overnight fasting, on day 29 at the experimental endpoint, blood was collected from the heart after CO2 euthanasia. Serum ALT and AST biochemical indicators were measured, and liver tissue was harvested for hepatic hydroxyproline content determination.
Blood was collected using anticoagulant-free tubes, allowed to stand at room temperature for 30 minutes, and then centrifuged at 4000 rpm for 10 minutes to separate serum, which was tested by Dian Diagnostics. Approximately 50 mg of liver tissue was taken from each mouse and tested according to the hydroxyproline assay kit method (Nanjing Jiancheng, Cat. No.: A030-2-1).
as §1

[3] = mouse, plasma, po, Gavage Administration (10 mg/kg)
[4] = mouse, plasma, po, Gavage Administration (10 mg/kg), read-out: AUC0-7 h
[5] = male, ICR, mouse, plasma, po, Gavage Administration (10 mg/kg)
[6] = numeric values of positive controls

T1 sequence (O14842 whole entry): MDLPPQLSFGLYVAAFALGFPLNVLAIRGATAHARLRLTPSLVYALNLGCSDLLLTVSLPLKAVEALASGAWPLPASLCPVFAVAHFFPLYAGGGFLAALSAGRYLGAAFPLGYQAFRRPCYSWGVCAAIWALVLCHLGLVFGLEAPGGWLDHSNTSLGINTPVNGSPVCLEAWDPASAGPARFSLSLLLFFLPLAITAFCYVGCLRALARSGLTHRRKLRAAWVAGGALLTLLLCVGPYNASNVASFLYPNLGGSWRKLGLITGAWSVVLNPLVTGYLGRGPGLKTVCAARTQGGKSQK

Compound: COc1cccc(N2CCC(c3oc4cc([C@@H](CC(=O)O)C5CC5)ccc4c3-c3cccc(C(C)(C)C)c3)CC2)c1 [Compound 12]
pEC50 (human FFAR1 (GPR40)): 7.00 to 8.00
Efficacy (%) (human FFAR1 (GPR40); class symbols): †† (150 ≥ Efficacy (%) > 100)
CL_obs [1]: 1.9 mL/min/kg
Vss_obs [1]: 0.52 L/kg
half-life ([1]; mouse, plasma): 5.02 h
Cmax [1, 3]: 6580 ng/mL
Tmax [1, 3]: 2 h
AUC(0-t) at 7 h [1, 4]: 38000 ng·h/mL
bioavailability ([1]; mouse, plasma, po): 44.6%

Compound: COc1cccc(N2CCC(c3oc4cc([C@@H](CC(=O)O)C5CC5)ccc4c3-c3ccc(C(C)(C)C)cc3)CC2)c1 [Compound 14]
pEC50 (human FFAR1 (GPR40)): 7.00 to 8.00
Efficacy (%) (human FFAR1 (GPR40); class symbols): ††† (Efficacy (%) > 150)
Blood Glucose (normal C57BL6/J mice; 0 minutes after glucose (2 g/kg)): 7.58 ± 0.59 mmol/L
Blood Glucose (normal C57BL6/J mice; 15 minutes after glucose (2 g/kg)): 11.08 ± 2.04 mmol/L
Blood Glucose (normal C57BL6/J mice; 30 minutes after glucose (2 g/kg)): 9.17 ± 1.37 mmol/L
Blood Glucose (normal C57BL6/J mice; 60 minutes after glucose (2 g/kg)): 7.6 ± 1.34 mmol/L
Blood Glucose (normal C57BL6/J mice; 90 minutes after glucose (2 g/kg)): 6.52 ± 2 mmol/L
Blood Glucose (normal C57BL6/J mice; 120 minutes after glucose (2 g/kg)): 5.87 ± 1.13 mmol/L
AUC 0-120 minutes (normal C57BL6/J mice; 1 mg/kg): 941±62.00
AUC 0-120 minutes (normal C57BL6/J mice; listed as compound 14, 1 mg/kg): significantly reduced

Compound: COc1cccc(N2CCC(c3oc4cc([C@@H](CC(=O)O)C5CC5)ccc4c3-c3cnn(C(C)(C)C)c3)CC2)c1 [Compound 38]
pEC50 (human FFAR1 (GPR40)): 7.00 to 8.00
Efficacy (%) (human FFAR1 (GPR40); class symbols): ††† (Efficacy (%) > 150)
CL_obs [1]: 2.3 mL/min/kg
Vss_obs [1]: 0.405 L/kg
half-life ([1]; mouse, plasma): 2.41 h
Cmax [1, 3]: 8600 ng/mL
Tmax [1, 3]: 2 h
AUC(0-t) at 7 h [1, 4]: 55400 ng·h/mL
bioavailability ([1]; mouse, plasma, po): 77.4%

pEC50 (human FFAR1 (GPR40)): 6.30 to 7.00
Efficacy (%) (human FFAR1 (GPR40); class symbols): †† (150 ≥ Efficacy (%) > 100)
CL_obs [1]: 1.3 mL/min/kg
Vss_obs [1]: 0.546 L/kg
half-life ([1]; male, ICR, mouse, plasma): 5.46 h
bioavailability ([1]; male, ICR, mouse, plasma, oral): 73.7%
Cmax [1, 5]: 11100 ng/mL
Tmax [1, 5]: 2 h
AUC(0-t) ([1]; male, ICR, mouse, plasma, po, Gavage Administration (10 mg/kg), read-out: AUC0-7 h): 92200 ng·h/mL
Compound: COc1ccc(F)c(N2CCC(c3oc4cc([C@@H](CC(=O)O)C5CC5)ccc4c3-c3cnn(C(C)(C)C)c3)CC2)c1 [Compound 89]

Compound: COc1ccc(F)c(N2CCC(c3oc4cc([C@@H](CC(=O)O)C5CC5)ccc4c3-c3cccc(C(C)(C)C)c3)CC2)c1 [Compound 166]
pEC50 (human FFAR1 (GPR40)): 7.00 to 8.00
Efficacy (%) (human FFAR1 (GPR40); class symbols): †† (150 ≥ Efficacy (%) > 100)
CL_obs [1]: 1.6 mL/min/kg
Vss_obs [1]: 0.668 L/kg
half-life ([1]; mouse, plasma): 6.7 h
Cmax [1, 3]: 4950 ng/mL
Tmax [1, 3]: 4 h
AUC(0-t) at 7 h [1, 4]: 48100 ng·h/mL
bioavailability ([1]; mouse, plasma, po): 48%

Compound: COc1cccc(N2CCC(c3oc4cc([C@@H](CC(=O)O)C5CC5)ccc4c3CN(CC(C)(C)C)C(C)=O)CC2)c1 [Compound 442]
pEC50 (human FFAR1 (GPR40)): 6.30 to 7.00
Efficacy (%) (human FFAR1 (GPR40); class symbols): †† (150 ≥ Efficacy (%) > 100)

Compound: COc1cccc(N2CCC(c3oc4cc([C@@H](CC(=O)O)C5CC5)ccc4c3CN(CC(C)(C)C)c3cccc(Cl)c3)CC2)c1 [Compound 447]
pEC50 (human FFAR1 (GPR40)): 6.30 to 7.00
Efficacy (%) (human FFAR1 (GPR40); class symbols): †† (150 ≥ Efficacy (%) > 100)

Compound: COc1cccc(N2CCC(c3oc4cc([C@@H](CC(=O)O)C5CC5)ccc4c3CN(C(=O)C(C)(C)C)c3cccc(Cl)c3)CC2)c1 [Compound 448]
pEC50 (human FFAR1 (GPR40)): 6.30 to 7.00
Efficacy (%) (human FFAR1 (GPR40); class symbols): †† (150 ≥ Efficacy (%) > 100)

Compound: COc1cccc(N2CCC(c3oc4cc(C(CC(=O)O)C5CC5)ccc4c3Cc3nnc(C(C)(C)C)o3)CC2)c1 (stereo not drawn) [Compound 450]
pEC50 (human FFAR1 (GPR40)): 6.30 to 7.00
Efficacy (%) (human FFAR1 (GPR40); class symbols): † (100 ≥ Efficacy (%) > 50)

Compound: CCCCCCCC(C)(C)c1nnc(-c2c(C3CCN(c4cccc(OC)c4)CC3)oc3cc(C(CC(=O)O)C4CC4)ccc23)o1 (stereo not drawn) [Compound 451]
pEC50 (human FFAR1 (GPR40)): 7.00 to 8.00
Efficacy (%) (human FFAR1 (GPR40); class symbols): †† (150 ≥ Efficacy (%) > 100)

Compound: CCCCCCC(C)(C)c1nnc(-c2c(C3CCN(c4cccc(OC)c4)CC3)oc3cc(C(CC(=O)O)C4CC4)ccc23)o1 (stereo not drawn) [Compound 452]
pEC50 (human FFAR1 (GPR40)): 7.00 to 8.00
Efficacy (%) (human FFAR1 (GPR40); class symbols): †† (150 ≥ Efficacy (%) > 100)

AUC0-120 minutes (mmol*min) [2]: 492±50.30** mmol*min
Compound: COc1ccc(Cl)cc1C(=O)NCCc1ccc(S(=O)(=O)NC(=O)NC2CCCCC2)cc1 [Glibenclamide, reference compound]

Compound: CC(C)c1cc(Oc2c(Cl)cc(-n3nc(C#N)c(=O)[nH]c3=O)cc2Cl)n[nH]c1=O [MGL3196, reference compound]
Hepatic Hydroxyproline (C57BL6/J mice; liver): 173.63 ± 32.06 µg/g
Total Liver Hydroxyproline (µg/liver) (C57BL6/J mice; liver): 313.58±98.24 µg/liver
ALT (U/L) (C57BL6/J mice; serum): 140±63.06 U/L
AST (U/L) (C57BL6/J mice; serum): 242±67.42 U/L

Compound: COc1ccc(C(=O)N(CC(C)(C)C)c2cccc(C)n2)c(N2CCC(COc3cc([C@@H](CC(=O)O)C4CC4)ccn3)CC2)c1 [SCO-267, SCO267, reference compound]
pEC50 (human FFAR1 (GPR40)): 7.00 to 8.00
Efficacy (%) (human FFAR1 (GPR40); [6]): 100%

Efficacy (%) (human FFAR1 (GPR40); [6]): 65%
Compound: Cc1cc(OCCCS(C)(=O)=O)cc(C)c1-c1cccc(COc2ccc3c(c2)OC[C@H]3CC(=O)O)c1 [TAK875, reference compound]
